In US20030207843A1, “Treatment of drug-resistant human immunodeficiency virus infection” (priority 1999, published 2003):
Read-outs that look alike come from different tables or passages of the source.

Tests used:
[1] = system: HIV-1LAI (wild type, control); assay: p24 reduction assay in MT-2 cells, wild type virus; format: cell-based
Protocol: (§1) Cells. MT-2 cells (AIDS Research and Reference Reagent Program, National Institute of Allergy and Infectious Diseases, National Institutes of Health) were maintained in RPMI 1640 supplemented with 10% fetal bovine serum (FBS; JRH Biosciences, Lenexa, Kans.), 10 mM HEPES buffer, 50 IU/ml penicillin and 50 μg/ml streptomycin.
Viruses. Stock virus was prepared by electroporating (BIO-RAD Gene Pulser®, Hercules, Calif.) MT-2 cells (1.3×10^7 cells) with 5-10 μg of plasmid DNA encoding a proviral clone of HIV-1LAI (see Nguyen, et. al., Antimicrob. Agents Chemother. 38:2409-2414, and Peden, et. al., Virology 185: 661-672.). At peak cytopathic effect (generally 5-7 days post-transfection), culture supernatants were harvested and stored at −80° C. Viral infectivity titers were determined in threefold endpoint dilution assays conducted in MT-2 cells (six wells per dilution). The 50% tissue culture infective dose (TCID50) was calculated using the Reed and Muench equation (see Reed, et. al., Am. J. Hyg. 27:493-496).
Antiviral Susceptibility Assays. The antiviral activity of each compound […], followed by incubation in the presence of three-fold serial drug dilutions (3 wells per dilution) (see Mellors, et. al., Antimicrob. Agents Chemother. 39:1087-1092). Five or seven days after infection, culture supernatants were harvested, lysed with 0.5% triton-X 100 and assayed for p24 antigen concentration using a commercial ELISA assay (DuPont, NEN Products, Wilmington, Del.). The antiviral activity of the compounds is expressed as the IC50, which is the concentration required to inhibit 50% of p24 antigen production. The fold-resistance of a test virus is calculated by dividing the IC50 of the test virus by the IC50 of the HIV-1LAI control virus.
Cultures of MT-2 cells infected with either wild type (xxLAI) or with the drug-resistant strains of HIV-1 listed above were treated with lipid analogs of PFA (B-PFA, MB-PFA, or EB-PFA). The μM concentration required to produce 50% inhibition of replication of the drug-resistant strain of HIV (EC50) was determined as shown in Table 1. Drug effects were measured by assaying p24 (a viral protein) in the culture medium.

HIV-1LAI E89K = assay: p24 reduction assay in MT-2 cells, E89K; format: cell-based; conditions: Table 7; for EC50: E89K; for Fold-resistance: E89K relative to wild type virus
Protocol: as §1
(§2) Antiviral Susceptibility Assays. The antiviral activity of each compound was determined by inoculating MT-2 cells with HIV-1LAI at a multiplicity of infection (MOI) of 0.01 TCID50/cell, followed by incubation in the presence of three-fold serial drug dilutions (3 wells per dilution) (see Mellors, et. al., Antimicrob. Agents Chemother. 39:1087-1092). Five or seven days after infection, culture supernatants were harvested, lysed with 0.5% triton-X 100 and assayed for p24 antigen concentration using a commercial ELISA assay (DuPont, NEN Products, Wilmington, Del.). The antiviral activity of the compounds is expressed as the IC50, which is the concentration required to inhibit 50% of p24 antigen production. The fold-resistance of a test virus is calculated by dividing the IC50 of the test virus by the IC50 of the HIV-1LAI control virus.
(§3) Generation of Mutant Recombinant HIV-1. HIV-1 containing the desired mutations were generated by oligonucleotide directed mutagenesis (Altered Sites II, Promega) as previously described (Mellors, et. al., Molecular Pharm. 41:446-451). After mutagenesis, mutant RT was subcloned into the pxxHIV-1LAI cloning vector using the silent XmaI and XbaI restriction sites located at the 5′ and 3′ ends of RT. Clones were DNA sequenced to verify the presence of the desired mutation(s) and electroporated into MT-2 cells as described above to generate infectious mutant recombinant HIV-1.
(§4) Mutant RT was generated via oligonucleotide-directed mutagenesis and ligated into the pXXHIV-1LAI cloning vector. Cloning was facilitated by the presence of two silent restriction sites at the 5′ and 3′ ends (Xma1 and Xba1, respectively) of pXXHIV-1LAI RT. Infectious mutant recombinant HIV-1 was generated by electroporating MT-2 cells with mutated pXXHIV-1LAI clones. The presence of the desired mutations was verified by DNA sequencing.
(§5) Invention compounds were also evaluated against a panel of HIV-1LAI derived recombinants resistant to PFA and the PFA invention compounds, as shown in Table 7.

[2] = system: 11163p3 (multinucleoside resistant clinical isolate); assay: p24 reduction assay in MT-2 cells, 11163p3; format: cell-based, HIV-1; conditions: Table 4; for EC50: 11163p3, mean ± SD; for Fold-resistance: 11163p3 relative to wild type virus
Protocol: as §1, §2
The MNR panel consisted of a virus containing the mutations V75I, F77L, F116Y and […], a virus containing the T69S[SA insert], and a clinical isolate carrying the classic MNR genotype (62V/751/77L/116Y/151M). Each of the PFA invention compounds retained potency against these viruses with fold resistance values of <2.

HIV-1LAI 4XAZT/W88S = assay: p24 reduction assay in MT-2 cells, 4XAZT/W88S; format: cell-based; conditions: Table 7; for EC50: 4XAZT/W88S; for Fold-resistance: 4XAZT/W88S relative to wild type virus
Protocol: as §1, §2, §3, §4, §5

[3] = Table 1, HIV-1LAI(control), MOI 0.01, p24, MT-2 cells, read-out: EC50
[4] = Table 2, HIV-1LAI(control), MOI 0.05, read-out: EC50
[5] = Table 3, Wild type, mean ± SD, at least three experiments, read-out: EC50
[6] = Table 4, HIV-1LAI wild type, mean ± SD, two or three experiments, read-out: EC50
[7] = Table 5, Wild type, mean ± SD, read-out: EC50
[8] = Table 6, baseline virus HIV-1LAI passage 0, read-out: EC50
[9] = Human immunodeficiency virus 1, MT2

SMILES	EC50 [1, 3]	EC50 [1, 4]	EC50 [1, 5]	EC50 [1, 6]	EC50 [1, 7]	EC50 (HIV-1LAI E89K)	Fold-resistance (HIV-1LAI E89K)	EC50 [2]	Fold-resistance [2]	EC50 (HIV-1LAI 4XAZT/W88S)	Fold-resistance (HIV-1LAI 4XAZT/W88S)	EC50 [1, 8]	further results
Cc1cn([C@H]2C[C@H](N=[N+]=[N-])[C@@H](CO)O2)c(=O)[nH]c1=O [AZT, 3′-Azido-3′-deoxythymidine]													EC50 ([1]; Human immunodeficiency virus 1, MT2, Table 8, Wild type, mean ± SD, read-out: AZT EC50): 21 ± 8 nM
CCCCCCCCCCCCCCCCCCOC[C@@H](O)COP(=O)(O)C(=O)O [B-PFA, 1-O-octadecyl-sn-glycero-3-PFA]	1900 nM	3010 nM	1790 ± 810 nM	1800 ± 810 nM	1790 ± 810 nM	> 30000 nM	(>17.2)	1100 ± 530 nM	(0.6)	4090 nM	1.84 (1.6)		
CCCCCCCCCCCCCCCCCCOC[C@H](COP(=O)(O)C(=O)O)OCC [EB-PFA, 1-O-octadecyl-2-O-ethyl-sn-glycero-3-PFA]	220 nM	760 nM	650 ± 360 nM	700 ± 360 nM	650 ± 360 nM	5210 nM		500 ± 60 nM	(0.8)	1510 nM	0.21 (1.9)	90 nM	
CCCCCCCCCCCCCCCCCCOC[C@H](COP(=O)(O)C(=O)O)OC [MB-PFA, 1-O-octadecyl-2-O-methyl-sn-glycero-3-PFA]	350 nM	1040 nM	500 ± 480 nM	500 ± 480 nM	500 ± 480 nM	7210 nM	0.12 (9.4)	400 ± 280 nM	(0.9)	1540 nM	0.81 (1.8)	70 nM	
O=C(O)P(=O)(O)O [PFA, phosphonoformate, reference compound]							46.24 (6.9)		(0.9)		10.40 (1.0)		EC50 ([1]; Human immunodeficiency virus 1, MT2, Table 1, HIV-1LAI(control), MOI 0.01, p24, MT-2 cells, read-out: EC50): 18300 nM; EC50 ([1]; Human immunodeficiency virus 1, MT2, Table 2, HIV-1LAI(control), MOI 0.05, read-out: EC50): 20100 nM; EC50 ([1]; Human immunodeficiency virus 1, MT2, Table 3, Wild type, mean ± SD, at least three experiments, read-out: EC50): 17700 ± 10100 nM; EC50 ([1]; Human immunodeficiency virus 1, MT2, Table 4, HIV-1LAI wild type, mean ± SD, two or three experiments, read-out: EC50): 17700 ± 10100 nM; EC50 ([1]; Human immunodeficiency virus 1, MT2, Table 5, Wild type, mean ± SD, read-out: EC50): 17700 ± 10100 nM; EC50 ([1]; Human immunodeficiency virus 1, MT2, Table 6, baseline virus HIV-1LAI passage 0, read-out: EC50): 5270 nM; EC50 ([1]; Human immunodeficiency virus 1, MT2, Table 7, Wild type, mean (SD in next grid row), read-out: EC50): 13100 nM; EC50 (HIV-1LAI E89K; [9]): 90200 nM; EC50 [2, 9]: 15500 ± 5040 nM; EC50 (HIV-1LAI 4XAZT/W88S; [9]): 18400 nM
